How the values were obtained:
HCT116 DICER^ex5 cells = test: Gene expression profiling (Agilent 44K microarray) after transfection of miR-192/miR-215 duplex mimetics; assay type: cell-based, human; conditions: 24 hr; 10 nM; vs mock-transfected
Protocol: Synthetic duplex mimetics of miR-192 and miR-215 (sequences shown in TABLE 1) or a control target Luciferase siRNA (Luc), shown in TABLE 1, were transfected (10 nM final concentration) into HCT116 DICER^ex5, a human colorectal cancer cell line with hypomorphic DICER function (Cummins, J. M., et al., PNAS 103:3687-3692 (2006)). The transfections were carried out using Lipofectamine RNAiMax (Invitrogen) per the manufacturer's instructions. At 10 and 24 hours post-transfection, total RNA was extracted and gene expression profiling was carried out with the Agilent 44K microarray in comparison to RNA isolated from mock-transfected HCT116DICER^ex5 cells. Microarray analysis was carried out as described in Linsley, P. S., et al., Mol Cell Biol 27:2240-2252 (2007). Gene expression data analysis was done either with the Rosetta Resolver gene expression analysis software (Version 7.1 Rosetta Biosoftware).

HCT116DICER^ex5 cells = test: BrdU pulse-labeling, flow cytometry (S-phase); assay type: cell-based, human; conditions: BrdU pulse-labeled; 10 nM duplex
Protocol: At 48 hours post transfection, cells were left untreated, treated with nocodazole (100 ng/mL, Sigma-Aldrich), or treated with aphidicolin (2 μg/mL, Sigma-Aldrich) for an additional 18 hours before harvesting. The cells were then trypsinized, collected, fixed and stained with a propidium iodide solution. BrdU-labeling was performed according to the manufacturer's instructions (BD-Pharmigen). For phospho-histone H3 analysis, cells were fixed and permeabilized with IPF buffer (100 mM PIPES pH 6.8, 10 mM EDTA, 1 mM MgCl2, 0.2% Triton X-100, 4% formaldehyde) and stained with propidium iodide and anti-phospho-histone H3 antibody conjugated to Alexa-488 (Cell Signaling Technology). The cells were analyzed using a FACSCalibur flow cytometer (Beacton Dickinson) and FlowJo software (Tree Star, Inc.).
The transfected cells were also pulse-labeled with the thymidine analog 5-bromo-deoxyuridine (BrdU) to assay for defects in DNA synthesis. Using flow cytometry and it was determined that the percentage of cells in S-phase in the mock transfected population was 37.3%, whereas the percentage of cells in S-phase in the miR-192 transfected population was 11.9%.

miR-192: Synthetic duplex mimetic of miR-192, guide CUGACCUAUGAAUUGACAGCC (SEQ ID NO:1), passenger SEQ ID NO:7 (sense CUGUCAAUUCAUCGGUCUGAU; listed as RNA, chemistry not given here; listed as Homo sapiens)
BRCA1 transcript fold change (HCT116 DICER^ex5 cells): −1.35 fold change
CDC7 transcript fold change (HCT116 DICER^ex5 cells): −2.05 fold change
CDC14A transcript fold change (HCT116 DICER^ex5 cells): −1.16 fold change
CDC73 transcript fold change (HCT116 DICER^ex5 cells): −1.17 fold change
CRK transcript fold change (HCT116 DICER^ex5 cells): −1.44 fold change
CTCF transcript fold change (HCT116 DICER^ex5 cells): −1.78 fold change
CUL5 transcript fold change (HCT116 DICER^ex5 cells): −1.35 fold change
DBF4B transcript fold change (HCT116 DICER^ex5 cells): −1.33 fold change
DEK transcript fold change (HCT116 DICER^ex5 cells): −1.47 fold change
DLG5 transcript fold change (HCT116 DICER^ex5 cells): −2.22 fold change
DTL transcript fold change (HCT116 DICER^ex5 cells): −1.38 fold change
EMP1 transcript fold change (HCT116 DICER^ex5 cells): −1.66 fold change
ERCC3 transcript fold change (HCT116 DICER^ex5 cells): −1.6 fold change
EXTL2 transcript fold change (HCT116 DICER^ex5 cells): −1.5 fold change
FGF2 transcript fold change (HCT116 DICER^ex5 cells): −1.83 fold change
HOXA10 transcript fold change (HCT116 DICER^ex5 cells): −2.3 fold change
HRH1 transcript fold change (HCT116 DICER^ex5 cells): −1.77 fold change
KIF14 transcript fold change (HCT116 DICER^ex5 cells): −1.42 fold change
KIF23 transcript fold change (HCT116 DICER^ex5 cells): −1.34 fold change
LMNB2 transcript fold change (HCT116 DICER^ex5 cells): −1.82 fold change
MACF1 transcript fold change (HCT116 DICER^ex5 cells): −1.64 fold change
MAD2L transcript fold change (HCT116 DICER^ex5 cells): −1.53 fold change
MCM3 transcript fold change (HCT116 DICER^ex5 cells): −1.91 fold change
MCM6 transcript fold change (HCT116 DICER^ex5 cells): −1.33 fold change
MCM10 transcript fold change (HCT116 DICER^ex5 cells): −2.37 fold change
MIS12 transcript fold change (HCT116 DICER^ex5 cells): −1.73 fold change
MKI67 transcript fold change (HCT116 DICER^ex5 cells): −1.4 fold change
MPHOSPH1 transcript fold change (HCT116 DICER^ex5 cells): −1.87 fold change
MTSS1 transcript fold change (HCT116 DICER^ex5 cells): −1.47 fold change
NBN transcript fold change (HCT116 DICER^ex5 cells): −1.27 fold change
NCAPH transcript fold change (HCT116 DICER^ex5 cells): −1.32 fold change
NEK1 transcript fold change (HCT116 DICER^ex5 cells): −1.47 fold change
NFIB transcript fold change (HCT116 DICER^ex5 cells): 1.82 fold change
NFYA transcript fold change (HCT116 DICER^ex5 cells): −1.35 fold change
NIN transcript fold change (HCT116 DICER^ex5 cells): 1.38 fold change
PAFAH1B1 transcript fold change (HCT116 DICER^ex5 cells): −2.22 fold change
PAPD5 transcript fold change (HCT116 DICER^ex5 cells): −1.44 fold change
PFTK1 transcript fold change (HCT116 DICER^ex5 cells): −1.33 fold change
PIM1 transcript fold change (HCT116 DICER^ex5 cells): −1.73 fold change
PLAU transcript fold change (HCT116 DICER^ex5 cells): −1.95 fold change
PLS3 transcript fold change (HCT116 DICER^ex5 cells): −1.57 fold change
POLQ transcript fold change (HCT116 DICER^ex5 cells): −1.18 fold change
POLS transcript fold change (HCT116 DICER^ex5 cells): −1.39 fold change
PPP1CA transcript fold change (HCT116 DICER^ex5 cells): −2.18 fold change
PRPF38A transcript fold change (HCT116 DICER^ex5 cells): −1.17 fold change
RACGAP1 transcript fold change (HCT116 DICER^ex5 cells): −1.9 fold change
RAD1 transcript fold change (HCT116 DICER^ex5 cells): −1.37 fold change
RAD21 transcript fold change (HCT116 DICER^ex5 cells): −1.36 fold change
RAD51 transcript fold change (HCT116 DICER^ex5 cells): −1.23 fold change
RAP1GAP transcript fold change (HCT116 DICER^ex5 cells): −1.43 fold change
RB1 transcript fold change (HCT116 DICER^ex5 cells): −1.45 fold change
SEPT10 transcript fold change (HCT116 DICER^ex5 cells): −1.98 fold change
SERTAD2 transcript fold change (HCT116 DICER^ex5 cells): −1.31 fold change
SH3BP4 transcript fold change (HCT116 DICER^ex5 cells): −1.9 fold change
SMARCB1 transcript fold change (HCT116 DICER^ex5 cells): −1.3 fold change
TDG transcript fold change (HCT116 DICER^ex5 cells): −1.52 fold change
TDP1 transcript fold change (HCT116 DICER^ex5 cells): −1.66 fold change
TOP1 transcript fold change (HCT116 DICER^ex5 cells): −1.66 fold change
TUBGCP3 transcript fold change (HCT116 DICER^ex5 cells): −1.52 fold change
USP1 transcript fold change (HCT116 DICER^ex5 cells): −1.35 fold change
UVRAG transcript fold change (HCT116 DICER^ex5 cells): −1.38 fold change
percentage of cells in S-phase (HCT116DICER^ex5 cells): 11.9%

Source: patent US20110118337A1, “Method of Using Compositions Comprising MIR-192 and/or MIR-215 for the Treatment of Cancer” (Merck Sharp & Dohme Corp., priority 2008, published 2011)
